Measurements taken from patent US7812042B2, “Pharmaceutical compositions and therapeutic applications for the use of a novel vitamin B12 derivative, N-acetyl-L-cysteinylcobalamin” (priority 2006, dated 2010).
Values joined by “and” are separate entries in the source; they are usually repeats but may differ in a detail not shown here. Equal values may be shown once. Where a name gives a salt, the structure may show the parent alone.

Tests used:
SK-HEP-1 cells [1] = settings: human, 2 h
Experimental: Cell viability was determined by MTS® assay. […] Cell viability was determined by MTS® assay.

SK-HEP-1 cells [2] = assay: Protection of endothelial cells from homocysteine-induced cell death (MTS assay, absorbance at 490 nm; includes comparison of NACCbl, NAC, cyanocobalamin+NAC, free thiols, other cobalamins, folate); assay type: cell-based, Human; settings: for Absorbance at 490 nm (n = 6): replicates Y1-Y6, listed as Hcy
Experimental: The effect of a constant concentration of NACCbl and GSCbl to protect cells against variable concentrations of homocysteine was assessed. […] Cell viability was determined by MTS® assay. Data shown in FIG. 4 are representative of means ±SE of 6 independent samples. FIG. 4 illustrates that NACCbl (▪) and GSCbl (▴) protect endothelial cells from the effect of homocysteine. […] Cell viability was determined by MTS® assay. […] There was a decrease in protection as homocysteine concentration increased, but there was still ˜60% survival at 50 μM homocysteine.
The data was normalized (log 2 and log 10) as shown in FIGS. 16 and 17 and Tables 16 and 17, respectively, below.

Hsp32 = Hsp32 gene expression in SK-HEP-1 cells (RT-PCR, densitometry); assay type: cell-based, Human; settings: homocysteine 30 μM, folate 30 μM (2 hr), Sn(IX) protoporphyrin 25 μM, quercitin 15 μM
Experimental: (§1) Cells were plated into 6-, 12-, or 24-well cell culture clusters, at 2×10^3, 2×10^5, or 1×10^5 cells per well and incubated until 90% confluent. Treatments were applied as above.
(§2) Following incubation, cells were subjected to mRNA extraction followed by cDNA synthesis for each sample under test. Polymerase chain reaction cDNA templates were prepared for simplex PCR protocol. PCR products were then visualized using a UV Transilluminator and images captured using a Kodak ID gel imaging system. Densitometry and statistical analysis was then performed on each gene expression band image using PSP® v 10.0 running under Windows XP®.
(§3) mRNA extraction was performed using the Quickprep micro mRNA Purification Kit. Following incubation of cells post-treatment, the media was removed from the cells, adherent cells were re-suspended in 0.4 ml extraction buffer and 0.8 ml elution buffer at 65° C. was added.
A reaction mixture was prepared in individual microcentrifuge tubes containing 2 cDNA synthesis beads, 32 μl of the mRNA solution and 1 μl of pd(N)6. This mixture was incubated at 37° C. in a water bath for 60 minutes. After incubation, 27 μl of RNase-free DEPC treated water was added to each tube to make a total volume 60 μl. cDNA samples were prepared in duplicate. Sample 1 was used immediately in RT-PCR protocol. Sample 2 was prepared for qPCR protocol by the addition of 150 μl of 95% ice-cold ethanol and stored at −20° C.
Microcentrifuge tubes from puReTaq™Ready-To-Go™ PCR Beads containing one PCR bead were labeled for each sample required. Added to the PCR bead were 17 μl of RNase-free DEPC treated water, 1 μl sense primer, 1 μl anti-sense primer and 5 μl of the cDNA solution. RT-PCR conditions were as follows: Hsp70 and β-actin, pre-treatment step, 94° C. for 1 minute, followed by denaturing at 92° C. for 1 minute, annealing at 60° C. for 1 minute and extension at 72° C. for 1 minute. Total cycles, 30, post-treatment was then carried out at 72° C. for 10 minutes. For Hsp32, pre-treatment step, 95° C. for 2 minutes, followed by denaturing at 94° C. for 30 seconds, annealing at 58° C. for 1 minute and extension at 72° C. for 1 minute. Total cycles 45, post treatment was then carried out at 72° C. for 10 minutes. Following RT-PCR, samples were stored at −20° C.
Amplification products were separated on a 1.8% agarose gel (m/v) in TAE buffer. The size of the PCR products was determined by comparison to DNA fragments of a well-defined size; therefore, 5 μl of the DNA Ladder was carefully pipetted into the first well of the gel. Successive 10 μl of each PCR sample was then pipetted into subsequent wells on the agarose gel. The gel was connected to the Power Pack and run at 100V for 30 minutes.
Gels were visualised on a UV Transilluminator. Photographs were stored using a Kodak Digital camera system fitted with a UV filter set connected to a PC. Images were then transferred to the Kodak ID gel imaging system. Densitometry was performed on each gene expression band using PSP™ v10 running under Windows XP®.
Experiments were conducted using Hsp32 and Hsp 70 gene expression as the basis for study. […] (all treatments for 2 hours).

SK-HEP-1 cells [3] = assay: NACCbl protection from homocysteine with Hsp32/Hsp70 inhibited by Sn(IX) protoporphyrin, quercitin or siRNA (MTS assay); assay type: cell-based, Human; settings: where named, NACCbl 30 μM pre-treatment two hours with/without Sn(IX)PP, quercetin, replicates 1-6, listed as Hcy
Text: siRNAs for human HO-1 were synthesised in 2′-deprotected, duplexed, desalted and purified form by Dharmacon Research Inc., published sequences from Zhang et al., (Zhang, Shan et al. 2004). Human Hsp70 primers were from proprietary sequences, and all control non-targeting primer sequences were also synthesised by Dharmacon Research Inc.
Transfection was optimised using a standard siControl Tox protocol. All transfection experiments included non-targeted siRNA.
Cells were trypsinized and plated into 12- or 96-well plates at cell density of 2×10^5, then incubated for 24 hours until adherent. Complexed siRNA and transfection agent at 100 nm was added directly to each experimental well. Plates were incubated at 37° C. for 32.5 hours for mRNA gene analysis experiments or 72 hours for protein analysis by Western Blot.
Complexed siRNA and transfection agent was added to each well of either 12- or 96-well plates. Cells were then trypsinized and added directly into each test well at cell density of 2×10^5. Plates were incubated at 37° C. for 32.5 hours for mRNA gene analysis experiments or 72 hours for protein analysis by Western Blot.
Hsp32 was inhibited using either Sn (IX) protoporhyrin or using an siRNA which specifically knocks out Hsp32. Hsp70 was inhibited using quercitin or using an siRNA which specifically knocks out Hsp70. In addition, two methods were used to inhibit both Hsp32 and Hsp70: chemically Sn (IX) protoporphyrin plus quercitin was used; and then, directly, a combination of the siRNA for both genes was used simultaneously.

Hsp70 = settings: SK-HEP-1; homocysteine 30 μM, folate 30 μM (2 hr), quercitin 15 μM
Experimental: as §1, §2, §3
A reaction mixture was prepared in individual microcentrifuge tubes containing 2 cDNA synthesis beads, 32 μl of the mRNA solution and 1 μl of pd(N)6. This mixture was incubated at 37° C. in a water bath for 60 minutes. After incubation, 27 μl of RNase-free DEPC treated water was added to each tube to make a total volume 60 μl. cDNA samples were prepared in duplicate. Sample 1 was used immediately in RT-PCR protocol.
Microcentrifuge tubes from puReTaq™Ready-To-Go™ PCR Beads containing one PCR bead were labeled for each sample required. Added to the PCR bead were 17 μl of RNase-free DEPC treated water, 1 μl sense primer, 1 μl anti-sense primer and 5 μl of the cDNA solution. RT-PCR conditions were as follows: Hsp70 and β-actin, pre-treatment step, 94° C. for 1 minute, followed by denaturing at 92° C. for 1 minute, annealing at 60° C. for 1 minute and extension at 72° C. for 1 minute. Total cycles, 30, post-treatment was then carried out at 72° C. for 10 minutes. […]
The size of the PCR products was determined by comparison to DNA fragments of a well-defined size; therefore, 5 μl of the DNA Ladder was carefully pipetted into the first well of the gel. […]

[4] = Decomposition of thiolatocobalamins in PBS at 37° C. monitored by UV/Vis spectrophotometry; assay type: physicochemical; settings: decomposition in PBS at 37° C.
Experimental: The decomposition of GSCbl, NACCbl, and HcyCbl in PBS at 37° C. was monitored by UV/Vis spectrophotometry.

SK-HEP-1 cells [5] = assay: Protection of endothelial cells from H2O2-induced cell death (MTS assay); assay type: cell-based, Human; settings: 2 hours pre-incubation, then 25 μM H2O2 24 hours
Experimental: The effect of increasing concentrations of NACCbl and GSCbl to protect endothelial cells from the effect of H2O2 was assessed. […] Cell viability was determined by MTS® assay. […] Cell viability was determined by MTS® assay. […] Cell viability was determined by MTS® assay.

SK-HEP-1 cells [6] = assay: Protection from apoptosis induced by homocysteine (Caspase-3 activity); assay type: cell-based, Human; settings: 30 μM pre-treatment two hours, then 30 μM homocysteine two hours
Experimental: Caspase 3 is activated when cells undergo apoptosis. Caspase-3 assay is a standard for apoptosis assay. Homocysteine is a known inducer of apoptosis. Cells were cultured in 96-well plates for 24 hours and then treated with reagents under test conditions. Cytotoxic agents, H2O2 and etoposide were added to negative control wells. The assay was performed according to the manufacturer's protocol, as follows: Cells were re-suspended in 100 μl of clear media and 50 μl of Caspase-3 substrate solution was immediately added to each test well. […] Cell viability was determined by MTS® assay. […] Cell viability was determined by MTS® assay.

SK-HEP-1 cells [7] = assay: Effect of high concentrations of NACCbl and GSCbl on SK-HEP-1 cells (MTS assay); assay type: cell-based, Human; set-up: cell viability (MTS), raw readings (FIG. 13): reference not given here; settings: 24 hours; for cell viability (MTS), raw readings (FIG. 13): 3 replicates
methionine synthase = molecular target: T1, methionine synthase (Oryctolagus cuniculus, UniProt G1SXW3); settings: rabbit spleen extracts; cited from earlier work
T1 construct: methionine synthase activity in rabbit spleen extracts; from tissue; host or cells: rabbit spleen extracts
T1 sequence (G1SXW3 1-1218): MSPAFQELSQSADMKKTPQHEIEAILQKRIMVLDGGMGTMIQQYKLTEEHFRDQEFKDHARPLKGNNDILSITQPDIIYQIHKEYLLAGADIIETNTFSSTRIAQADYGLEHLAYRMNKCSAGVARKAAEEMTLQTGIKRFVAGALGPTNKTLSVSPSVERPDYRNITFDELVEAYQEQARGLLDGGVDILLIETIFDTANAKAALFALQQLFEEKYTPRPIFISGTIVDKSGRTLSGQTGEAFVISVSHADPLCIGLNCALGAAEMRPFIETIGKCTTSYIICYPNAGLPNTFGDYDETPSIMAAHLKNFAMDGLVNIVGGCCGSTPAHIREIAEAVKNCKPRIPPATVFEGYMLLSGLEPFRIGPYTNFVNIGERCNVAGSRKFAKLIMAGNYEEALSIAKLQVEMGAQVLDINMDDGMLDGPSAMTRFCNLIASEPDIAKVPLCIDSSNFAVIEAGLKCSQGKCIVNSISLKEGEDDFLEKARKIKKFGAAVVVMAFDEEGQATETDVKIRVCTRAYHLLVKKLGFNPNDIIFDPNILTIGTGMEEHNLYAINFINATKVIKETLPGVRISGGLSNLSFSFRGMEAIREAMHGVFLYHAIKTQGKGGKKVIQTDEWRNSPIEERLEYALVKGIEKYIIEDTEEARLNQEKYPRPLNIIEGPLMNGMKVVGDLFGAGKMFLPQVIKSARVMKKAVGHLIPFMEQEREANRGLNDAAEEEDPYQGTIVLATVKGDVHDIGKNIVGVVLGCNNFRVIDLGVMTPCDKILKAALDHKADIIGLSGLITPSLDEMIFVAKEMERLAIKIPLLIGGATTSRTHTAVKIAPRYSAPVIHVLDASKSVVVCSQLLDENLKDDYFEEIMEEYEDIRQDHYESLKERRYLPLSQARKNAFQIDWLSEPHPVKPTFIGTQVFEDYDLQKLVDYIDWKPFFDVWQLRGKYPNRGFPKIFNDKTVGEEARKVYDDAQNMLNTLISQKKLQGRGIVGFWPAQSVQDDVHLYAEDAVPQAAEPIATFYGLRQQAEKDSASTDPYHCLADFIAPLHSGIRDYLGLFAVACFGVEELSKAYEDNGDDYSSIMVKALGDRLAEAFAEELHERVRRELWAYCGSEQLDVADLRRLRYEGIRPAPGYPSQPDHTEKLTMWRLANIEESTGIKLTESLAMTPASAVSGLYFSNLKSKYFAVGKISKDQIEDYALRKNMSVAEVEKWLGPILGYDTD

In the case of `NC(CCS)C(=O)O` (racemic) [Homocysteine, DL-Homocysteine], the “concentration achieving greater than 90% death” value (SK-HEP-1 cells [1]) is reported as 25 µM, the “concentration that killed cells (p<0.001)” value (SK-HEP-1 cells [1]) is reported as ≥ 5 µM and the “Absorbance at 490 nm, Mean (n = 6)” value (SK-HEP-1 cells [2]; Conc. Hcy 200.000 (μM), NACCbl 30 μM, NAC 75 μM) is reported as 0.360. For the same molecule, the “normalized cell viability (MTS), percent, mean of 6” value (SK-HEP-1 cells [2]; Conc. Hcy 200.000, NACCbl 30 μM, NAC 75 μM) was −0.033, the “Absorbance at 490 nm (n = 6)” value (SK-HEP-1 cells [2]; Conc. of Hcy 25.000, NACCbl 30 μM, NAC 75 μM) was 0.740 and the “Absorbance at 490 nm (n = 6)” value (SK-HEP-1 cells [2]; Conc. of Hcy 50.000, NACCbl 30 μM, NAC 75 μM) was 0.770. For the same molecule, the “Absorbance at 490 nm (n = 6)” value (SK-HEP-1 cells [2]; Conc. of Hcy 100.000, NACCbl 30 μM, NAC 75 μM) was 0.510, the “Absorbance at 490 nm (n = 6)” value (SK-HEP-1 cells [2]; Conc. of Hcy 200.000, NACCbl 30 μM, NAC 75 μM) was 0.330 and 0.390 and the “effect on Hsp32 gene expression” value (Hsp32) was “increase in expression”. For the same molecule, the “cell viability (MTS), raw readings (FIG. 11)” value (“cell viability … (FIG. 11)” for short) (SK-HEP-1 cells [3]; Hcy 25 (μM) two hours) was 0.74, the “cell viability … (FIG. 11)” value (SK-HEP-1 cells [3]; Hcy 50 (μM) two hours) was 0.77 and the “cell viability … (FIG. 11)” value (SK-HEP-1 cells [3]; Hcy 100 (μM) two hours) was 0.51. For the same molecule, the “cell viability … (FIG. 11)” value (SK-HEP-1 cells [3]; Hcy 200 (μM) two hours) was 0.33 and 0.39 and the “effect on Hsp70 gene expression” value (Hsp70) was “increase in expression”.
For `C/C1=C2N=C(/C=C3N=C(/C(C)=C4\[N-]C(C(CC(N)=O)C4(C)CCC(=O)NCC(C)OP(=O)([O-])OC4C(CO)OC(n5cnc6cc(C)c(C)cc65)C4O)C4(C)N=C1C(CCC(N)=O)C4(C)CC(N)=O)C(CCC(N)=O)C\3(C)C)C(CCC(N)=O)C/2(C)CC(N)=O.NC(CCC(=O)NC(C[S-])C(=O)NCC(=O)O)C(=O)O.[Co+3]` (stereo not drawn) [GSCbl, Glutathionylcobalamin, reference compound], the t1/2 [4] was “No decomposition within 20 hours”, the survival (SK-HEP-1 cells [2]; 30 μM cobalamin pre-incubation two hours, then 50 μM homocysteine two hours) was ~60% and the “concentration required for >80% survival protection” value (SK-HEP-1 cells [2]; 2 hours pre-incubation, then 30 μM homocysteine 24 hours) was 50 µM. For the same molecule, the “protection against homocysteine-induced damage compared with free thiols” value (SK-HEP-1 cells [2]; Hcy 30 μM, NAC 45, GSH 100, NACCbl 12.5, GSCbl 15 μM, with or without folate 25 μM) was “superior to the free thiols”, the “concentration required to achieve >80% survival” value (SK-HEP-1 cells [5]) was 100 µM and the “protection against apoptosis induced by homocysteine” value (SK-HEP-1 cells [6]) was “total protection”. For the same molecule, the “effect on Hsp32 gene expression” value (Hsp32) was “induce Hsp32”, the “cell death compared with NACCbl” value (SK-HEP-1 cells [7]; above 0.2 mM concentration) was “caused greater cell death than NACCbl” and the “cell viability (MTS), raw readings (FIG. 13)” value (“cell viability … (FIG. 13)” below) (SK-HEP-1 cells [7]; compound conc. 0.61 (μM scale)) was 2.554 and 2.376 and 2.53. The “cell viability … (FIG. 13)” value (SK-HEP-1 cells [7]; compound conc. 1.22 (μM scale)) was 2.347 and 2.433 and 2.503, the “cell viability … (FIG. 13)” value (SK-HEP-1 cells [7]; compound conc. 2.441 (μM scale)) was 2.527 and 2.434 and 2.46 and the “cell viability … (FIG. 13)” value (SK-HEP-1 cells [7]; compound conc. 4.882 (μM scale)) was 2.543 and 2.528 and 2.519. For the same molecule, the “cell viability … (FIG. 13)” value (SK-HEP-1 cells [7]; compound conc. 9.765 (μM scale)) was 2.532 and 2.476 and 2.42, the “cell viability … (FIG. 13)” value (SK-HEP-1 cells [7]; compound conc. 19.531 (μM scale)) was 2.553 and 2.476 and 2.42 and the “cell viability … (FIG. 13)” value (SK-HEP-1 cells [7]; compound conc. 39.062 (μM scale)) was 2.492 and 2.484 and 2.468. The “cell viability … (FIG. 13)” value (SK-HEP-1 cells [7]; compound conc. 78.125 (μM scale)) was 2.444 and 2.406 and 2.402, the “cell viability … (FIG. 13)” value (SK-HEP-1 cells [7]; compound conc. 156.25 (μM scale)) was 2.407 and 2.37 and 2.318 and the “cell viability … (FIG. 13)” value (SK-HEP-1 cells [7]; compound conc. 312.5 (μM scale)) was 2.306 and 2.204 and 2.138. The “cell viability … (FIG. 13)” value (SK-HEP-1 cells [7]; compound conc. 625 (μM scale)) was 2.197 and 1.912 and 1.787, the “cell viability … (FIG. 13)” value (SK-HEP-1 cells [7]; compound conc. 1250 (μM scale)) was 1.973 and 1.846 and 1.71 and the “cell viability … (FIG. 13)” value (SK-HEP-1 cells [7]; compound conc. 2500 (μM scale)) was 1.775 and 1.81 and 1.896. The “cell viability … (FIG. 13)” value (SK-HEP-1 cells [7]; compound conc. 5000 (μM scale)) was 1.728 and 1.67 and 1.623, the “cell viability … (FIG. 13)” value (SK-HEP-1 cells [7]; compound conc. 10000 (= 10 mM)) was 1.322 and 1.342 and 1.366 and the “promotion of methionine synthase activity” value (methionine synthase) was “more active than other cobalamins in promoting methionine synthase activity”.
With `OO` [H2O2, Hydrogen peroxide] the “concentration achieving greater than 90% death” value (SK-HEP-1 cells [1]) was 12.5 µM and the “concentration sufficient to kill cultured endothelial cells (P<0.001)” value (SK-HEP-1 cells [1]) was ≥ 3 μm.
`CC1=C2N=C(C=C3N=C(C(C)=C4[N-]C(C(CC(N)=O)C4(C)CCC(=O)NCC(C)OP(=O)([O-])OC4C(CO)OC(n5cnc6cc(C)c(C)cc65)C4O)C4(C)N=C1C(CCC(N)=O)C4(C)CC(N)=O)C(CCC(N)=O)C3(C)C)C(CCC(N)=O)C2(C)CC(N)=O.NC(CC[S-])C(=O)O.[Co+3]` [HcyCbl, D,L-homocysteinyl-cobalamin] showed a t1/2 [4] of 6.6 h.
In the case of `CC(=O)N[C@@H](CS)C(=O)O` [NAC, N-Acetyl-L-Cysteine, reference compound], the “Absorbance at 490 nm, Mean (n = 6)” value (SK-HEP-1 cells [2]; Conc. Hcy 3.125 (μM), NACCbl 30 μM, NAC 75 μM) is reported as 1.897.
In the case of `O.O.O=c1c(O)c(-c2ccc(O)c(O)c2)oc2cc(O)cc(O)c12` [Quercitin, 2-(3,4-Dihydroxyphenyl)-3,5,7-trihydroxy-4H-1-benzopyran-4-one dihydrate], the “effect on Hsp32 gene expression” value (Hsp32) is reported as “does not inhibit Hsp32 gene expression” and the “effect on Hsp70 gene expression” value (Hsp70) is reported as “inhibits Hsp70 gene expression”.
In the case of `C=CC1=C(C)c2cc3[n-]c(cc4[n-]c(cc5nc(cc1n2)C(C)=C5C=C)c(C)c4CCC(=O)O)c(CCC(=O)O)c3C.[Cl-].[Cl-].[Sn+4]` [Sn (IX) protoporphyrin, 8,13-Bis(vinyl)-3,7,12,17-tetramethyl-21H,23H-porphine-2,18dipropionic acid tin(IV) dichloride], the “effect on Hsp32 gene expression” value (Hsp32) is reported as “inhibited”.
In the case of `CN1c2c(nc(N)[nH]c2=O)NC[C@@H]1CNc1ccc(C(=O)N[C@@H](CCC(=O)O)C(=O)O)cc1` [folate, 5-Methyltetrahydrofolic acid disodium salt], the “protection against apoptosis induced by homocysteine” value (SK-HEP-1 cells [6]) is reported as “partial protection”, the “effect on Hsp32 gene expression” value (Hsp32) is reported as “increase in expression” and the “effect on Hsp70 gene expression” value (Hsp70) is reported as “increase in expression”.
